One compound from publication PMC7660916, “The Salmonella enterica serovar Typhimurium virulence factor STM3169 is a hexuronic acid binding protein component of a TRAP transporter” (Microbiology, 2020) can be followed below.

The assay concerns the target STM3169 (Salmonella enterica, UniProt Q8ZM02). The assay can be described thus: intrinsic fluorescence titration; supported by MST (KD […]) and thermal shift. It is filed as binding.

Chain of STM3169 (Q8ZM02 entry or part of it): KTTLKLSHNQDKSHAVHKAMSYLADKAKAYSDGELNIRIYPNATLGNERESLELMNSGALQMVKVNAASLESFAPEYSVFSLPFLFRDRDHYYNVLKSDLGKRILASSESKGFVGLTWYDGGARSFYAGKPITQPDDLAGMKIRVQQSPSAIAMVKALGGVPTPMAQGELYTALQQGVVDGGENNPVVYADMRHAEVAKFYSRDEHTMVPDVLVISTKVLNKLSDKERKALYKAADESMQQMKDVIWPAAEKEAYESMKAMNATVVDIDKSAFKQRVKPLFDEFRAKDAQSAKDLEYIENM

As for `O=C(O)[C@H]1OC(O)[C@H](O)[C@@H](O)[C@@H]1O` (stereo partly drawn) [D-glucuronate], the dissociation constant Kd worked out at 170 ± 77 nM.
